Values of other authors, collected in patent US20250360135A1, “COMPOSITIONS COMPRISING DISODIUM 5,10-METHYLENE-(6R)-TETRAHYDROFOLATE” (MERCK PATENT GMBH, priority 2022, published 2025).

Nc1nc2c(c(=O)[nH]1)N1CN(c3ccc(C(=O)N[C@@H](CCC(=O)O)C(=O)O)cc3)C[C@H]1CN2 [5,10-methylene-(6R,S)-tetrahydrofolic acid]
purity after 7 hours (after 7 hours): 84% | normalized purity after 24 hours (after 24 hours): 45% | degradation rate (loss of purity per hour) (re-constituted lyophilizate, linear regression of stability profile): 2.2 % purity per hour
